Test results reported in the NIST ThermoML archive (doi:10.1016/j.fluid.2013.10.011).
± gives the expanded uncertainty stated by the source.

Details: Crystal; visual observation

Which Normal melting temperature does the source give for O=C(O)C[C@H](O)C(=O)O [l-hydroxysuccinic acid] here?
The Normal melting temperature was 99.50 ± 1.6 °C.
